In article PMC12040169 (PLOS Biology, 2025):
Peptide text beside a SMILES is read from it. * marks the point of attachment. Bz = O=C(c1ccccc1)*

Test: in vitro
Settings: human, hela cells, % viability

Point of comparison: `Cc1ccc(N(CC(=O)Nc2ccc(Br)c(C)c2)S(=O)(=O)c2ccc(C)cc2)cc1` [CBK264038], viability at 28.5 h, 10 µM 94.6%. Against it:
- O=C(CN(c1ccc(Cl)cc1)S(=O)(=O)c1ccccc1)Nc1ccc(F)cc1 [CBK264013] — lower, 90.5%
- OC(CNCCc1ccccc1)CN1c2ccccc2Sc2ccccc21 (stereo not shown) [CBK264017G] — higher, 97.6%
- COc1ccc(I)cc1S(=O)(=O)NCc1ccccn1 [CBK264019] — lower, 91.3%
- Cc1ccc(S(=O)(=O)N(CC(=O)Nc2ccc(Cl)cc2C)c2cccc(Cl)c2C)cc1 [CBK264021] — lower, 85.7%
- Cc1ccc(-c2nc3cc(Cl)ccc3o2)cc1NC(=S)NC(=O)c1cccc(Cl)c1 [CBK264022] — higher, 108%
- COc1ccc(C(NC(=O)c2cccc(OC)c2)c2cc(Cl)c3cccnc3c2O)cc1 (stereo not shown) [CBK264027] — lower, 90.7%
- O=C(CSCc1ccc([N+](=O)[O-])cc1)Nc1ccc2c(c1)OCO2 [CBK264031] — higher, 95.7%
- O=S(=O)(NCc1cccnc1)c1ccc(Cl)c(Cl)c1Cl [CBK264032] — lower, 91.1%
- O=C(Nc1ccc2oc(-c3cccnc3)nc2c1)c1ccc(-c2ccccc2)cc1 [CBK264035] — lower, 88.3%
- COc1cc(C(=O)Nc2ccc3oc(-c4cccnc4)nc3c2)ccc1OCc1ccc(Cl)cc1 [CBK264037] — lower, 87.9%
- Cc1ccccc1CNC(=O)CCSc1ccc(Cl)cc1 [CBK264040] — higher, 102%
- CC(Oc1ccc(/C=C/[N+](=O)[O-])cc1)C(=O)O (stereo not shown) [CBK264042] — higher, 99.9%
- CCCc1nc2oc3c(-c4ccccc4)c(C(=O)O)c(C)nc3c2c2c1COC(C)(C)C2 [CBK264044] — lower, 89.2%
- CCOC(=O)c1c(NC(=S)NC(=O)c2cccc(Cl)c2)sc2c1CCCC2 [CBK264045] — lower, 88.2%
- Cc1ccccc1CNC(=O)CN(c1cccc(C(F)(F)F)c1)S(=O)(=O)c1ccccc1 [CBK264047] — higher, 102%
- Cc1ccc(C(=O)NC(=S)Nc2cccc(NC(=O)c3ccccc3C)c2)cc1 [CBK264049] — higher, 95.1%
- COc1ccc(N(CC(=O)N2CCN(C)CC2)S(=O)(=O)c2ccc(C)c([N+](=O)[O-])c2)cc1 [CBK264051] — lower, 89.8%
- CN1CCc2c(C#N)c(N)n(N)c(=S)c2C1 [CBK264055] — higher, 101%
- Cc1ccc(S(=O)(=O)NCCSCc2ccc(Cl)cc2)cc1[N+](=O)[O-] [CBK264056] — higher, 104%
- Cn1nc(CC(=O)Nc2ccc(OC(=O)c3ccccc3)cc2)c2ccccc2c1=O [CBK264057] — higher, 96%
- O=C(NC(Cc1ccccc1)C(=O)N1CCCC1C(=O)O)c1ccccc1 (stereo not drawn) [CBK264058] (Bz-Phe-Pro-OH; configuration not given here) — lower, 90.8%
- CC(Oc1ccccc1)C(=O)Nc1ccccc1-c1ccccc1 (stereo not shown) [CBK264059] — higher, 111%
- CC(Oc1ccccc1)C(=O)NCCCc1ccccc1 (stereo not shown) [CBK264060] — lower, 93.4%
- O=C(COc1cccc(Br)c1)Nc1nnc[nH]1 [CBK264063] — lower, 94.1%
- CC(C)(O)C#Cc1ccc(C(=O)N2CCC(C(N)=O)(N3CCCCC3)CC2)cc1 [CBK264065] — higher, 97.3%
- Cc1cc(C)c(C)c(C(=O)COC(=O)c2cc(O)nc3ccccc23)c1C [CBK264066] — higher, 94.8%
- Cc1sc2nc(SCC(=O)c3c[nH]c4ccccc34)nc(O)c2c1C [CBK264068] — lower, 80.9%
- COc1ccc(C(=O)COC(=O)c2cc(-c3ccc(Cl)cc3)nc3ccc(C)cc23)cc1[N+](=O)[O-] [CBK264072] — lower, 90.6%
- O=S(=O)(NC1c2cccc3cccc(c23)C1Sc1ccccn1)c1ccc(Cl)cc1 (stereo not shown) [CBK264073] — higher, 95.1%
- CC(=O)OC(C(=O)O)C(OC(C)=O)c1nc2ccccc2s1 (stereo not shown) [CBK264076] — higher, 99.3%
- O=C(O)CNC(=O)CN1C(=O)c2ccccc2C1=O [CBK264077] — higher, 98.6%
- O=S(=O)(NC1c2cccc3cccc(c23)C1N1CCNCC1)c1ccc(Cl)cc1 (stereo not shown) [CBK264082] — lower, 92.2%
- Cc1ccc(C(=O)COC(=O)c2cc(O)nc3ccccc23)cc1[N+](=O)[O-] [CBK264085] — higher, 98.8%
- Cc1noc(NS(=O)(=O)c2ccc(NC(=O)COc3cccc(Br)c3)cc2)c1C [CBK264086] — higher, 104%
- O=S(=O)(NCC(Nc1cccc2ccccc12)c1ccccc1)c1ccc(Cl)cc1 (stereo not shown) [CBK264087] — lower, 90.3%
- O=C(/C=C/c1cccc2ccccc12)N1CCCCCC1 [CBK264092] — higher, 111%
- Cc1ccc(SCCNC(=O)C(C)Sc2ccc(Cl)cc2)cc1 (stereo not shown) [CBK264104] — lower, 93.5%
- O=C(NC(=S)Nc1ccc2oc(-c3ccncc3)nc2c1)c1ccccc1[N+](=O)[O-] [CBK264106] — lower, 87.3%
- Cc1cc(C)cc(N(CC(=O)Nc2ccc(C)c(Cl)c2)S(=O)(=O)c2ccccc2)c1 [CBK264109] — higher, 98.9%
- NC(=S)NC(=O)CN1C(=O)c2ccccc2C1=O [CBK264111] — lower, 90.9%
- CC(Oc1ccc(Cl)cc1Cl)C(=O)Nc1ccc(O)cc1 (stereo not shown) [CBK264120] — higher, 94.8%
- COc1ccc(C)cc1NC(=O)CN(c1ccc(F)cc1)S(=O)(=O)c1ccc(C)cc1 [CBK264122] — higher, 101%
- Cc1ccc(S(=O)(=O)N(CC(=O)NCc2ccco2)c2cccc(C)c2)cc1 [CBK264125] — lower, 93.9%
- Cc1ccc(S(=O)(=O)NCCSc2ccc(Cl)cc2)cc1[N+](=O)[O-] [CBK264126] — higher, 96.8%
- CCOc1ccc(C(=O)NC(=S)Nc2ncccc2C)cc1[N+](=O)[O-] [CBK264128] — higher, 98.3%
- CN(c1ccc(C(=O)Nc2ccc(S(=O)(=O)N3CCOCC3)cc2)cc1)S(=O)(=O)c1ccccc1 [CBK264129] — higher, 96.7%
- COc1cc(S(=O)(=O)Oc2ccc(OCc3ccccc3)cc2)ccc1Cl [CBK264132] — lower, 92.2%
- O=C(CCSc1ccc(Cl)cc1)Nc1ccc(S(=O)(=O)N2CCOCC2)cc1 [CBK264133] — higher, 95.5%
- O=C(COc1ccc2ccccc2c1Br)Nc1ccc(S(=O)(=O)N2CCCC2)cc1 [CBK264135] — higher, 99.3%
- COc1ccc(Cl)cc1N(CC(=O)Nc1ccccc1C(=O)O)S(C)(=O)=O [CBK264137] — higher, 96.9%
- Cc1c(NC(=O)C2CN(S(=O)(=O)c3ccccc3)CCN2S(=O)(=O)c2ccccc2)c(=O)n(-c2ccccc2)n1C (stereo not shown) [CBK264138] — higher, 98%
- Cc1ccc(S(=O)(=O)N(CC(=O)NCC2CCCO2)c2ccccc2)cc1 (stereo not shown) [CBK264140] — lower, 90.9%
- COc1ccc(S(=O)(=O)N(CC(=O)Nc2ccc(F)cc2)c2ccccc2)cc1 [CBK264141] — higher, 96.5%
- O=C(CSc1nsc(SCC(=O)c2ccccc2)n1)c1ccccc1 [CBK264142] — higher, 120%
- Cc1ccc(C(=O)NCCNS(=O)(=O)c2ccccc2)cc1 [CBK264145] — lower, 88.8%
- CC(C)(C)C1CCc2c(sc(NC(=O)CCC(=O)O)c2C(=O)Nc2ccccc2Cl)C1 (stereo not shown) [CBK264146] — lower, 87.2%
- C/C=C/c1ccc(OCCCSc2ccc(Cl)cc2)c(OC)c1 [CBK264147] — higher, 97.5%
- O=S(=O)(c1ccc2ccccc2c1)N1CCN(C2CCC(c3ccccc3)CC2)CC1 (stereo not shown) [CBK264152] — higher, 103%
- O=C(COc1ccc(-c2ccccc2)cc1)N1CCN(S(=O)(=O)c2ccccc2[N+](=O)[O-])CC1 [CBK264154] — lower, 93%
- O=C(O)CCC(C(=O)O)N1C(=O)c2cc(Cl)c(Cl)cc2C1=O (stereo not shown) [CBK264156] — higher, 113%
- COc1ccc(N2CCN(c3nc(N4CCOCC4)nc(N4CCOCC4)n3)CC2)cc1 [CBK264166] — higher, 100%
- CC(C)(C)c1ccc(C(=O)NC(=S)Nc2ccc(O)c(-c3nc4cc(Cl)ccc4o3)c2)cc1 [CBK264169] — lower, 88%
- CC(=O)Nc1ccc(S(=O)(=O)N2CCN(Cc3ccccc3[N+](=O)[O-])CC2)cc1 [CBK264170] — lower, 89.3%
- O=C(Nc1ccc(Cl)cc1)C(Cc1ccccc1)N1C(=O)c2cc(Cl)c(Cl)cc2C1=O (stereo not shown) [CBK264172] — higher, 99.2%
- Cc1cccc(NC(S)=NCc2ccccn2)c1 [CBK264174] — higher, 104%
- Cc1ccc(C(=O)COC(=O)C(Cc2ccccc2)N2C(=O)c3cc(Cl)c(Cl)cc3C2=O)cc1 (stereo not shown) [CBK264176] — higher, 109%
- CCCCn1c(NCc2nc3ccccc3n2C)nc2ccccc21 [CBK264177] — lower, 87.2%
- COc1ccc(C2NCCc3c2[nH]c2ccccc32)cc1CN1CCN(c2ccc(F)cc2)CC1 (stereo not shown) [CBK264178C] — lower, 81.7%
- COc1cc(NC(=O)COc2ccc3ccccc3c2)c(C(=O)O)cc1OC [CBK264181] — higher, 103%
- COc1cc(C(=O)N2CCN(S(=O)(=O)c3ccccc3[N+](=O)[O-])CC2)cc(OC)c1OC [CBK264182] — higher, 105%
- N=C(N)NS(=O)(=O)c1ccc(N/C=C\C(=O)c2ccncc2)cc1 [CBK264185] — lower, 91.8%
- O=S(=O)(c1ccc2ccccc2c1)N1CCN(C2CCCCCCC2)CC1 [CBK264186G] — higher, 98.3%
- COc1ccc(OC)c(-c2nc(Nc3ccccc3Cl)sc2CC(=O)O)c1 [CBK264190] — higher, 96.4%
- Cc1ccc(C)c(NC(=O)CN(Cc2ccc(Cl)c(Cl)c2)S(=O)(=O)c2ccccc2)c1 [CBK264191] — higher, 107%
- CCOC(=O)C1CCCN(CCC(=O)Nc2ccccc2)C1 (stereo not shown) [CBK264192C] — lower, 91.7%
- COc1cc(NC(=O)CCN2CCN(C)CC2)cc(OC)c1 [CBK264193] — lower, 92.5%

Same assay, conditions: human, hela cells, % viability, bulk resorufin, single well

Point of comparison: `Cc1cc(/C=C2\C(=O)NC(=O)N(c3cccc(F)c3)C2=O)c(C)n1-c1cc(C(=O)O)cc(C(=O)O)c1` [CBK264041], viability at 28.5 h, 10 µM 97.3%. Against it:
- COc1ccc(N2C(=O)/C(=C/c3ccc(OCC(=O)O)c(Cl)c3)C(=O)NC2=S)cc1 [CBK264018] — lower, 93.7%
- Cc1cc(/C=C2\C(=O)NC(=O)N(c3ccccc3F)C2=O)c(C)n1-c1cc(C(=O)O)cc(C(=O)O)c1 [CBK264028] — lower, 89.9%
- Cc1cccc(N2C(=O)/C(=C/c3ccccc3OCc3ccc(C(=O)O)cc3)C(=O)NC2=S)c1 [CBK264100] — lower, 95.3%
- CCc1ccccc1N1C(=O)NC(=O)/C(=C\c2ccc(OCC(=O)O)c(Cl)c2)C1=O [CBK264107] — lower, 95.2%
